According to PMC6100113, “Involvement of CYP4F2 in the Metabolism of a Novel Monophosphate Ester Prodrug of Gemcitabine and Its Interaction Potential In Vitro” (Molecules : A Journal of Synthetic Chemistry and Natural …, 2018):

B1: CYP4F2 (Homo sapiens) (protein)
chain: SLSWLGLWPVAASPWLLLLLVGASWLLAHVLAWTYAFYDNCRRLRCFPQPPRRNWFWGHQGMVNPTEEGMRVLTQLVATYPQGFKVWMGPISPLLSLCHPDIIRSVINASAAIAPKDKFFYSFLEPWLGDGLLLSAGDKWSRHRRMLTPAFHFNILKPYMKIFNESVNIMHAKWQLLASEGSACLDMFEHISLMTLDSLQKCVFSFDSHCQEKPSEYIAAILELSALVSKRHHEILLHIDFLYYLTPDGQRFRRACRLVHDFTDAVIQERRRTLPSQGVDDFLQAKAKSKTLDFIDVLLLSKDEDGKKLSDEDIRAEADTFMFEGHDTTASGLSWVLYHLAKHPEYQERCRQEVQELLKDREPKEIEWDDLAHLPFLTMCMKESLRLHPPVPVISRHVTQDIVLPDGRVIPKGIICLISVFGTHHNPAVWPDPEVYDPFRFDPENIKERSPLAFIPFSAGPRNCIGQTFAMAEMKVVLALTLLRFRVLPDHTEPRRKPELVLRAEGGLWLRVEPLS
notes: purchased Corning Gentest

How the values were obtained:
[1] = system: Compound-3 metabolism in human liver microsomes; assay: Inhibition of Compound-3 metabolism in HLM by selective chemical inhibitors of CYP isozymes; format: in vitro ADME; settings: HLM 0.2 mg/mL, 1 μM Compound-3; HET-0016 1 µM, ketoconazole 1 µM, quercetin 10 µM, other inhibitors at the concentrations of b45
Procedure: Incubation contained 0.2 mg/mL human liver microsomes, 100 mM phosphate buffer (pH 7.4), 1 mM NADPH, 1 μM Compound-3, and inhibitors at specified concentrations. Compound-3 remaining was calculated based on concentrations after incubation in the presence or absence of respective inhibitors.

[2] = Metabolite identification by UPLC/Triple TOF MS in human liver microsomes; format: in vitro ADME; design: key: √: metabolites were detected by high-resolution mass spectrometry; settings: Compound-3 10 μM, 1 mg/mL microsomes, NADPH, 60 min, HRMS
Procedure: (§1) For metabolite identification, a higher concentration of Compound-3 (10 μM) was incubated with liver microsomes (1 mg/mL) in the presence of NADPH (1 mM) and primary human hepatocytes at a density of 1 × 10^6 cell/mL. Samples were collected at 0 min and 60 min with the addition of ice-cold acetonitrile. After vortexing and centrifugation, the supernatant was transferred into a new tube and evaporated to dryness. The samples were then reconstituted in 100 μL of water and methanol (v/v, 9:1). An aliquot of 10 μL of reconstituted solution was injected into UPLC/Triple TOF 5600^+ MS for metabolite identification.
(§2) Identification of Compound-3 metabolites was carried out using Acquity UPLC/Triple TOF 5600^+ system. Chromatographic separation for Compound-3 and its metabolites were achieved by an Acquity UPLC HSS T3 column (100 × 2.1 mm i.d., […]; Waters Corp.) maintained at 40 °C. The mobile phase was a mixture of 0.02% formic acid in 5 mM ammonium acetate (A) and methanol (B). The gradient elution was started from 2% B and maintained for 4 min, then increased linearly to 75% B over the next 4 min and maintained for 8 min. […] The flow rate was 0.4 mL/min and the eluent was monitored by UV detection at 280 nm.
(§3) For mass detection, a Triple TOF 5600^+ mass spectrometer (AB Sciex, Framingham, MA, USA) was operated in positive ion electrospray (ES-positive) mode with the source temperature at 500 °C and scan range from m/z 100 to 1000 Da. Other parameters were set as follows: ion spray voltage, 5500 V; decluttering potential, 80 V; curtain gas, 40 psi; ion source gas 1, 55 psi; and ion source gas 2, 50 psi. Collision energies of 25 and 65 eV were used for TOF MS and product ion scans, respectively, and a collision energy spread of 20 was used in the MS/MS analysis. Information-dependent acquisition (IDA), together with real-time multiple mass defect filter, was used to trigger acquisition of MS/MS spectra.

[3] = Metabolite identification by UPLC/Triple TOF MS in human intestinal microsomes; format: in vitro ADME; design: key: √: metabolites were detected by high-resolution mass spectrometry; settings: Compound-3 10 μM, NADPH, 60 min, HRMS
Procedure: as §1, §2, §3

[4] = Metabolite identification by UPLC/Triple TOF MS in rat intestinal microsomes; format: in vitro ADME; design: key: √: metabolites were detected by high-resolution mass spectrometry; settings: Compound-3 10 μM, NADPH, 60 min, HRMS
[5] = Metabolite identification by UPLC/Triple TOF MS in human hepatocytes; format: in vitro ADME; design: key: √: metabolites were detected by high-resolution mass spectrometry; settings: Compound-3 10 μM, 1 × 10^6 cell/mL, 60 min, HRMS
Procedure: as §1, §2, §3

[6] = target: T1, CYP4F2 (Homo sapiens, UniProt P78329); assay: Reaction phenotyping with recombinant CYP4F2; format: in vitro ADME; settings: Compound-3 1 μM with recombinant CYP4F2 50 nM, NADPH, 37 °C (Figure S2)
T1 construct: purchased Corning Gentest
T1 sequence (P78329 5-520): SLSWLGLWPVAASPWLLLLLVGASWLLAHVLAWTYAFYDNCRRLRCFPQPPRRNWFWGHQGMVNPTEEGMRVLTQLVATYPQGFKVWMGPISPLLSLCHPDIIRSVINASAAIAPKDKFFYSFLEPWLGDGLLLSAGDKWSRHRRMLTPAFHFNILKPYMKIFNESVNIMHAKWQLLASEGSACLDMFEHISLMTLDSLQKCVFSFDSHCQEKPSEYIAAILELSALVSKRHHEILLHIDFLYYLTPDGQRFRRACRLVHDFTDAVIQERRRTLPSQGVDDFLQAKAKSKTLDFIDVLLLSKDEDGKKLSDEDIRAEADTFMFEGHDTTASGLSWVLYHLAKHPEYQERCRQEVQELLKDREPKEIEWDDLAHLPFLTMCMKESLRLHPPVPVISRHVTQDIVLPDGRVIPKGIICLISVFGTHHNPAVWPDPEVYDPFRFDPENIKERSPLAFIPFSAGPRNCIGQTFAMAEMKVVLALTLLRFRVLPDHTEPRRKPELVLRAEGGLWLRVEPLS
Procedure: Compound-3 was incubated separately with human cDNA-expressed cytochrome P450s (CYP1A2, CYP2B6, CYP2C8, CYP2C9, CYP2C19, CYP2D6, CYP3A4, CYP4A11, CYP4F2 and CYP4F3). The incubation mixtures contained individual CYP isoenzymes (50 nM), potassium phosphate buffer (100 mM, pH 7.4), NADPH (1 mM), and Compound-3 (1 µM). The final volume of the incubation mixture was 50 µL. Before the start of the incubation, reaction mixtures were warmed up at 37 °C for 10 min. The reaction was initiated with the addition of NADPH and the incubations were performed at 37 °C in a water bath. […] Control samples without NADPH but substrates were included. The samples were then centrifuged and aliquots of 10 μL of the supernatants were transferred onto LC-MS/MS for the analysis of Compound-3 and M4 (carboxylic acid) levels.
The following are available online. Figure S1. Gemcitabine Formation from Compound-3 Hydrolysis as a function of alkaline phosphatase protein concentrations. Compound-3 (1 μM) was incubated with alkaline phosphatase concentrations ranging from 0.01–0.2 mg/mL at 37 °C (n = 3). Figure S2. Metabolites of Compound-3 in human recombinant CYP4F2. Compound-3 (1 μM) was incubated with human recombinant CYP4F2 (50 nM) in the presence of NADPH at 37 °C (n = 3).

[7] = Metabolite identification by UPLC/Triple TOF MS in rat liver microsomes; format: in vitro ADME; design: key: √: metabolites were detected by high-resolution mass spectrometry; settings: Compound-3 10 μM, 1 mg/mL microsomes, NADPH, 60 min, HRMS
Procedure: as §1, §2, §3

[8] = system: alkaline phosphatase; assay: Hydrolysis of Compound-3 by alkaline phosphatase (gemcitabine formation); format: in vitro ADME; design: key to detected in matrix ALP: √: metabolites were detected by high-resolution mass spectrometry; settings: incubation of Compound-3 with alkaline phosphatase, HRMS
Procedure: Compound-3 was incubated with alkaline phosphatase, and the linearity of gemcitabine formation as a function of time and protein concentration was first examined. The reaction mixtures consisted of alkaline phosphatase, 100 mM phosphate buffer (pH 7.4) and Compound-3 (10 μM). The final volume of the incubation mixture was 200 μL. The mixture was warmed up at 37 °C for 2 min prior to the initiation of the reaction with the addition of the enzyme. At specified time points, 25 μL of the incubation mixtures was added to 100 μL cold acetonitrile containing the internal standard to terminate the reaction. Levels of gemcitabine were determined by LC-MS/MS. […] Compound-3 was tested at concentrations ranging from 0 to 200 μM. Kinetic parameters of Compound-3 in alkaline phosphatase were calculated using GraphPad Prism (Version 6.0, GraphPad Software Inc., San Diego, CA) and nonlinear regression analysis. Equation used was as the following (the Michaelis-Menten equation):V = (Vmax × [S])/(Km + [S])(1) where V is the rate of metabolite formation, Vmax is the maximum velocity, Km is the Michaelis constant (substrate concentration at 0.5 Vmax), and [S] is the substrate concentration.

[9] = target: T1, CYP4F2; assay: CYP4F2-mediated drug interaction (inhibition of CYP4F2); format: in vitro ADME; settings: substrate Compound-3 1 μM, CYP4F2 10 nM, 10 min, M4 formation; read-out: IC50, inhibition of CYP4F2 mediated metabolism of Compound-3
Procedure: CYP4F2-mediated drug interactions were examined in two separate setting: pafuramidine as the substrate and Compound-3 as the inhibitor; and Compound-3 as the substrate and pafuramidine as the inhibitor. The reaction system contained 10 nM CYP4F2, 100 mM phosphate buffer (pH 7.4), 1 mM NADPH, and substrate (pafuramidine 1.5 μM or Compound-3 1 μM). Inhibitor (Compound-3 or pafuramidine) concentrations ranged from 0 to 10,000 nM. The incubation time was 5 min for pafuramidine and 10 min for Compound-3. Incubation temperature was 37 °C. LC-MS/MS analysis was performed as described above for the levels of DB775 or M4 (carboxylic acid metabolite of Compound-3).

[10] = substrate: CCCCCCCCCCCCCCCCCCOCCOP(=O)(O)OCC1OC(n2ccc(N)nc2=O)C(F)(F)C1O; assay: Formation kinetics of M4 (carboxylic acid) from Compound-3 by CYP4F2; format: in vitro ADME, human; settings: other: CYP4F2 10 nM, 10 min, substrate inhibition model, estimated; pH 7.4; 37.0 °C
Procedure: To investigate the formation kinetics of carboxylic acid metabolite (M4) from Compound-3, varying concentrations of Compound-3 (0–10 µM) were incubated with 10 nM CYP4F2 and 1 mM NADPH in 100 mM phosphate buffer (pH 7.4). The reactions were carried at 37 °C for 10 min and terminated with the addition of ice-cold acetonitrile containing the internal standard. Samples were then centrifuged, and aliquots of 10 μL of the supernatants were analyzed by LC-MS/MS for M4 levels.
Kinetic parameters of Compound-3 in recombinant human CYP4F2 were calculated using Enzyme Kinetics Modules of SigmaPlot (Version 14.0, Systat Software, San Jose, CA, USA). An uncompetitive substrate inhibition equation was also used:V = (Vmax × [S])/{Km + [S] × (1 + [S]/Ki)}(2) where Ki is the disassociation constant describing the inhibitor-enzyme interaction.

Molecule | detected in matrix HLM [2] | detected in matrix HIM [3] | detected in matrix RIM [4] | detected in matrix Human Hepatocytes [5] | incubation time at which metabolite formation peaked [6] | further results
CC(=O)N1CCN(c2ccc(OCC3COC(Cn4ccnc4)(c4ccc(Cl)cc4Cl)O3)cc2)CC1 (stereo not shown) [ketoconazole] | – | – | – | – | – | inhibition of Compound-3 metabolism in HLM [1]: moderate inhibition
O=c1c(O)c(-c2ccc(O)c(O)c2)oc2cc(O)cc(O)c12 [quercetin] | – | – | – | – | – | inhibition of Compound-3 metabolism in HLM [1]: moderate inhibition
Nc1ccn(C2OC(COP(=O)(O)OCCOCCCCCCCCCCCCCCCCCC=O)C(O)C2(F)F)c(=O)n1 (stereo not shown) [Compound M2] | √ | √ | √ | √ | 5 min | –
Nc1ccn(C2OC(COP(=O)(O)OCCOCCCCCCCCCCCCCCCCCCO)C(O)C2(F)F)c(=O)n1 (stereo not shown) [Compound M3] | √ | √ | √ | √ | 5 min | detected in matrix RLM [7]: √
Nc1ccn([C@@H]2O[C@H](CO)[C@@H](O)C2(F)F)c(=O)n1 [Gemcitabine, 2′,2′-difluorodeoxycytidine] | – | – | – | – | – | detected in matrix ALP [8]: √
Nc1ccn(C2OC(COP(=O)(O)OCCOCCCCCCCCCCCCCCCCCC(=O)O)C(O)C2(F)F)c(=O)n1 (stereo not shown) [Compound M4] | √ | √ | √ | √ | 60 min | detected in matrix RLM [7]: √
CONC(=N)c1ccc(-c2ccc(-c3ccc(C(=N)NOC)cc3)o2)cc1 [pafuramidine, reference compound] | – | – | – | – | – | IC50 [9]: 240 nM
B1 | – | – | – | – | – | Km [10]: 0.69 µM
